Laboratory results from patent US20110178064A1, “SPIRO CONDENSED […] DERIVATIVES FOR USE AS ANTIBACTERIAL” (A[…]&D, priority 2007, published 2011).
Converted amounts (≈) assume the structure as drawn.

Legend:
[1] = molecular target: Escherichia coli DNA gyrase A/B tetramer (Escherichia coli, UniProt P0AES4+P0AES6); assay: DNA gyrase supercoiling activity fluorescence polarisation assay; assay type: biochemical
In short: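 Gyrase supercoiling reactions quenched with 40 nM 5′-BODIPY-FL oligodeoxynucleotide triplex probe in pH 3.5 NaCl/sodium acetate buffer; fluorescence anisotropy read after 60 min (485/535 nm).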

Eco524 = assay: Bacterial susceptibility testing (MIC) in liquid media, 96 well format; assay type: cell-based; conditions: Escherichia coli
Excerpt: (§1) Compounds may be tested for antimicrobial activity by susceptibility testing in liquid media in a 96 well format. Compounds may be dissolved in dimethylsulfoxide and tested in 10 doubling dilutions in the susceptibility assays. The organisms used in the assay may be grown overnight on suitable agar media and then suspended in a liquid medium appropriate for the growth of the organism. The suspension may be a 0.5 McFarland and a further 1 in 10 dilution may be advantageously made into the same liquid medium to prepare the final organism suspension in 100 μL. Plates may be incubated under appropriate conditions at 37° C. for 24 hours prior to reading. […] Compounds may be evaluated against organisms such as Gram-positive species, including Staphylococcus aureus, Streptococcus pneumoniae, Streptococcus pyogenes, and Enterococcus faecium; and Gram-negative species including Haemophilus influenzae, Escherichia coli and Moraxella catarrhalis.

Hin158 = assay: as above; assay type: cell-based; conditions: Haemophilus influenzae
Excerpt: as §1

Hin446 = assay: as above; assay type: cell-based; conditions: Haemophilus influenzae
Excerpt: as §1

Hin737 = assay: as above; assay type: cell-based; conditions: Haemophilus influenzae
Excerpt: as §1

Mca445 = assay: as above; assay type: cell-based; conditions: Moraxella catarrhalis
Excerpt: as §1

Sau517 = assay: as above; assay type: cell-based; conditions: Staphylococcus aureus
Excerpt: as §1

Escherichia coli DNA gyrase A/B tetramer, sequence (P0AES4 whole entry, one chain of several): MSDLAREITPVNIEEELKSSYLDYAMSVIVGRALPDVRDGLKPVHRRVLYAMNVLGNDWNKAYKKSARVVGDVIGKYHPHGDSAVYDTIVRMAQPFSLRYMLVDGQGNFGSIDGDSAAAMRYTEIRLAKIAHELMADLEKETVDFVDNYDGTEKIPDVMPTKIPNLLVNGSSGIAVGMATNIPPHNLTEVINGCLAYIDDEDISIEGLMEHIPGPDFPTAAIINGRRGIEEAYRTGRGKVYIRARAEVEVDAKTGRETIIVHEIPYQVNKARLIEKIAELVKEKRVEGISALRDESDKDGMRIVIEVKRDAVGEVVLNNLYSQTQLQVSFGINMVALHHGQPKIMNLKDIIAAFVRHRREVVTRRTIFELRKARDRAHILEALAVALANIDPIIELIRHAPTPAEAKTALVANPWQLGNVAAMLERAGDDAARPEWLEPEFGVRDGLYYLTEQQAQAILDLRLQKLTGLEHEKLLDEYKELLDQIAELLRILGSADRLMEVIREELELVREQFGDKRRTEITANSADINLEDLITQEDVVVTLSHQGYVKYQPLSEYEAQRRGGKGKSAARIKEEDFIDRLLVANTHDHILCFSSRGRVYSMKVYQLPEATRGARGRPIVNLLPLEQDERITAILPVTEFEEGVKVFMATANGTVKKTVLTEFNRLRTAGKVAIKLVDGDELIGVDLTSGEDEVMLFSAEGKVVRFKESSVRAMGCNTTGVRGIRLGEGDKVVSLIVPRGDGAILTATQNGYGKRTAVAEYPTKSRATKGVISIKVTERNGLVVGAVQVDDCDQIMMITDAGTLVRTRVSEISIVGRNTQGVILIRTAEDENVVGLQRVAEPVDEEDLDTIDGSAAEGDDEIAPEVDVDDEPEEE

SMILES | IC50 [1] [µM] | MIC (Eco524) [µg/mL] | MIC (Hin158) [µg/mL] | MIC (Hin446) [µg/mL] | MIC (Hin737) [µg/mL] | MIC (Mca445) [µg/mL] | MIC (Sau517) [µg/mL]
C[C@@H]1CN2c3ncccc3CC3(C(=O)NC(=O)NC3=O)[C@H]2[C@H](C)O1 (relative stereo) [Example 18, (6aS,7S,9R)-rel-7,9-Dimethyl-6a,7,9,10-tetrahydro-1′H,5H-spiro[[1,4]oxazino[4,3-a][1,8]naphthyridine-6,5′-pyrimidine]-2′,4′,6′(3′H)-trione] | 51 | 32 (≈ 96.9 µM) | 8 (≈ 24.2 µM) | 16 (≈ 48.4 µM) | 32 (≈ 96.9 µM) | – | –
C[C@@H]1CN2c3ccc(Br)nc3CC3(C(=O)NC(=O)NC3=O)[C@H]2[C@H](C)O1 (relative stereo) [Example 19, (2R,4S,4aS)-rel-8-Bromo-2,4-dimethyl-2,4,4a,6-tetrahydro-1H,1′H-spiro[[1,4]oxazino[4,3-a][1,5]naphthyridine-5,5′-pyrimidine]-2′,4′,6′(3′H)-trione] | 11 | 2 (≈ 4.89 µM) | 1 (≈ 2.44 µM) | 4 (≈ 9.77 µM) | 16 (≈ 39.1 µM) | 8 (≈ 19.5 µM) | 32 (≈ 78.2 µM)
